Measured values published in patent publication US20190315823A1, “SMALL CATIONIC ANTI-BIOFILM AND IDR PEPTIDES” (priority 2013, published 2019).
Ends that are not written are not given here.

Columns and labels:
[1] = test system: human peripheral blood mononuclear cells (MCP-1); test: SPOT-synthesized derivative screen: production of chemokine MCP-1; assay type: cell-based; details: Table 12, No LPS, human PBMC, peptide at ~18-24 μM; for MCP1: background subtracted 139 (HH2 derivatives), 170 (1018 derivatives), 242 (1002 and hybrid peptides) pg/ml
Method in brief: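 PBMC from heparinized healthy-donor venous blood, Ficoll-separated, cultured at 0.75 to 1×10^6 cells/ml, 37 °C, 5% CO2, under the treatment regimens. MCP-1 in cell-free supernatants measured by capture ELISA.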

[2] = test system: methicillin resistant Staphylococcus aureus (MRSA) biofilm; details: approximate peptide concentration […] (around 3 μg/ml); compared to untreated samples
Method in brief: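 Static biofilm assay: 1/100 dilutions of overnight cultures grown in BM2 medium (pH 7, glucose, Casamino Acids) or Luria Broth with peptide added at time zero. After 22–46 h, adherent biofilm was stained with crystal violet and read at 595 nm. Some peptides were also tested on K. pneumoniae under flow in a Bioflux system.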

[3] = test system: LPS-stimulated human peripheral blood mononuclear cells (IL1-β); assay type: cell-based; details: Table 12, cells stimulated with 10 ng/ml LPS; for IL1β Production: LPS alone 1313 (HH2 derivatives), 1927 (1018 derivatives), 2455 (1002 and hybrid peptides) pg/ml

HH2-Q8: single substituted HH2 peptide (VQLRIRVQVIRA-NH2)
Fold increase in MCP1 cf. untreated cells [1]: 9.4 | MCP1 [1]: 1421 pg/mL | % Biofilm inhibition [2]: 65% | Fold change in IL1β relative to no peptide LPS stimulated cells [3]: 0.97 | IL1β Production [3]: 1279 pg/mL

1018-V11: single substituted 1018 peptide (VRLIVAVRIWVR-NH2) [Peptide 1018-V11]
Fold increase in MCP1 cf. untreated cells [1]: 1.0 | MCP1 [1]: 2 pg/mL | % Biofilm inhibition [2]: 29% | Fold change in IL1β relative to no peptide LPS stimulated cells [3]: 0.94 | IL1β Production [3]: 1240 pg/mL

HH2-K1: single substituted HH2 peptide (KQLRIRVAVIRA-NH2)
Fold increase in MCP1 cf. untreated cells [1]: 6.7 | MCP1 [1]: 968 pg/mL | % Biofilm inhibition [2]: 55% | Fold change in IL1β relative to no peptide LPS stimulated cells [3]: 1.08 | IL1β Production [3]: 1423 pg/mL

1002-A6: single substituted 1002 peptide (VQRWLAVWRIRK-NH2) [Peptide 1002-A6]
Fold increase in MCP1 cf. untreated cells [1]: 3.0 | MCP1 [1]: 485.3 pg/mL | % Biofilm inhibition [2]: 28% | Fold change in IL1β relative to no peptide LPS stimulated cells [3]: 0.16 | IL1β Production [3]: 382 pg/mL

1018-L5: single substituted 1018 peptide (VRLILAVRIWRR-NH2) [Peptide 1018-L5]
Fold increase in MCP1 cf. untreated cells [1]: 3.0 | MCP1 [1]: 335 pg/mL | % Biofilm inhibition [2]: 71% | Fold change in IL1β relative to no peptide LPS stimulated cells [3]: 0.12 | IL1β Production [3]: 162 pg/mL

1002-V5: single substituted 1002 peptide (VQRWVIVWRIRK-NH2) [Peptide 1002-V5]
Fold increase in MCP1 cf. untreated cells [1]: 38.2 | MCP1 [1]: 9022.6 pg/mL | % Biofilm inhibition [2]: 75% | Fold change in IL1β relative to no peptide LPS stimulated cells [3]: 0.18 | IL1β Production [3]: 440 pg/mL

1002-R5: single substituted 1002 peptide (VQRWRIVWRIRK-NH2) [Peptide 1002-R5]
Fold increase in MCP1 cf. untreated cells [1]: 0.9 | MCP1 [1]: -36.2 pg/mL | % Biofilm inhibition [2]: 62% | Fold change in IL1β relative to no peptide LPS stimulated cells [3]: 0.14 | IL1β Production [3]: 349 pg/mL

1002-L12: single substituted 1002 peptide (VQRWLIVWRIRL-NH2) [Peptide 1002-L12]
Fold increase in MCP1 cf. untreated cells [1]: 4.7 | MCP1 [1]: 905.7 pg/mL | % Biofilm inhibition [2]: 64% | Fold change in IL1β relative to no peptide LPS stimulated cells [3]: 0.05 | IL1β Production [3]: 127 pg/mL

1018-K5: single substituted 1018 peptide (VRLIKAVRIWRR-NH2) [Peptide 1018-K5]
Fold increase in MCP1 cf. untreated cells [1]: 0.9 | MCP1 [1]: -10 pg/mL | % Biofilm inhibition [2]: 29% | Fold change in IL1β relative to no peptide LPS stimulated cells [3]: 1.31 | IL1β Production [3]: 1722 pg/mL

HH2-I2: single substituted HH2 peptide (VILRIRVAVIRA-NH2)
Fold increase in MCP1 cf. untreated cells [1]: 11 | MCP1 [1]: 1748 pg/mL | % Biofilm inhibition [2]: 54% | Fold change in IL1β relative to no peptide LPS stimulated cells [3]: 0.81 | IL1β Production [3]: 1060 pg/mL

HH2-I12: single substituted HH2 peptide (VQLRIRVAVIRI-NH2)
Fold increase in MCP1 cf. untreated cells [1]: 18 | MCP1 [1]: 2845 pg/mL | % Biofilm inhibition [2]: 65% | Fold change in IL1β relative to no peptide LPS stimulated cells [3]: 0.51 | IL1β Production [3]: 667 pg/mL

1002-K6: single substituted 1002 peptide (VQRWLKVWRIRK-NH2) [Peptide 1002-K6]
Fold increase in MCP1 cf. untreated cells [1]: 0.9 | MCP1 [1]: -36.2 pg/mL | % Biofilm inhibition [2]: 2% | Fold change in IL1β relative to no peptide LPS stimulated cells [3]: 0.33 | IL1β Production [3]: 808 pg/mL

1018-L8: single substituted 1018 peptide (VRLIVAVLIWRR-NH2) [Peptide 1018-L8]
Fold increase in MCP1 cf. untreated cells [1]: 0.5 | MCP1 [1]: -83 pg/mL | % Biofilm inhibition [2]: 40% | Fold change in IL1β relative to no peptide LPS stimulated cells [3]: 0.42 | IL1β Production [3]: 553 pg/mL

1002-G6: single substituted 1002 peptide (VQRWLGVWRIRK-NH2) [Peptide 1002-G6]
Fold increase in MCP1 cf. untreated cells [1]: 0.9 | MCP1 [1]: -36.2 pg/mL | % Biofilm inhibition [2]: 26% | Fold change in IL1β relative to no peptide LPS stimulated cells [3]: 0.45 | IL1β Production [3]: 1098 pg/mL

HH2-V11: single substituted HH2 peptide (VQLRIRVAVIVA-NH2)
Fold increase in MCP1 cf. untreated cells [1]: 5.6 | MCP1 [1]: 788 pg/mL | % Biofilm inhibition [2]: 51% | Fold change in IL1β relative to no peptide LPS stimulated cells [3]: 1.15 | IL1β Production [3]: 1515 pg/mL

1018-R3: single substituted 1018 peptide (VRRIVAVRIWRR-NH2) [Peptide 1018-R3]
Fold increase in MCP1 cf. untreated cells [1]: 3.0 | MCP1 [1]: 349 pg/mL | % Biofilm inhibition [2]: 29% | Fold change in IL1β relative to no peptide LPS stimulated cells [3]: 1.25 | IL1β Production [3]: 1636 pg/mL

HH2-A11: single substituted HH2 peptide (VQLRIRVAVIAA-NH2)
Fold increase in MCP1 cf. untreated cells [1]: 5.9 | MCP1 [1]: 833 pg/mL | % Biofilm inhibition [2]: 64% | Fold change in IL1β relative to no peptide LPS stimulated cells [3]: 1.60 | IL1β Production [3]: 2105 pg/mL

1002-K10: single substituted 1002 peptide (VQRWLIVWRKRK-NH2) [Peptide 1002-K10]
Fold increase in MCP1 cf. untreated cells [1]: 0.9 | MCP1 [1]: -32.5 pg/mL | % Biofilm inhibition [2]: 0% | Fold change in IL1β relative to no peptide LPS stimulated cells [3]: 0.05 | IL1β Production [3]: 127 pg/mL

1002-Q6: single substituted 1002 peptide (VQRWLQVWRIRK-NH2) [Peptide 1002-Q6]
Fold increase in MCP1 cf. untreated cells [1]: 0.9 | MCP1 [1]: -36.2 pg/mL | % Biofilm inhibition [2]: 22% | Fold change in IL1β relative to no peptide LPS stimulated cells [3]: 0.35 | IL1β Production [3]: 859 pg/mL

1018-K9: single substituted 1018 peptide (VRLIVAVRKWRR-NH2) [Peptide 1018-K9]
Fold increase in MCP1 cf. untreated cells [1]: 1.1 | MCP1 [1]: 15 pg/mL | % Biofilm inhibition [2]: 60% | Fold change in IL1β relative to no peptide LPS stimulated cells [3]: 0.23 | IL1β Production [3]: 300 pg/mL

HH2-Q6: single substituted HH2 peptide (VQLRIQVAVIRA-NH2)
Fold increase in MCP1 cf. untreated cells [1]: 191 | MCP1 [1]: 32306 pg/mL | % Biofilm inhibition [2]: 35% | Fold change in IL1β relative to no peptide LPS stimulated cells [3]: 0.83 | IL1β Production [3]: 1088 pg/mL

HH2-R8: single substituted HH2 peptide (VQLRIRVRVIRA-NH2)
Fold increase in MCP1 cf. untreated cells [1]: 121 | MCP1 [1]: 1890 pg/mL | % Biofilm inhibition [2]: 71% | Fold change in IL1β relative to no peptide LPS stimulated cells [3]: 0.79 | IL1β Production [3]: 1042 pg/mL

1018-L2: single substituted 1018 peptide (VLLIVAVRIWRR-NH2) [Peptide 1018-L2]
Fold increase in MCP1 cf. untreated cells [1]: 0.8 | MCP1 [1]: -35 pg/mL | % Biofilm inhibition [2]: 61% | Fold change in IL1β relative to no peptide LPS stimulated cells [3]: 0.32 | IL1β Production [3]: 426 pg/mL

HH2-L4: single substituted HH2 peptide (VQLLIRVAVIRA-NH2)
Fold increase in MCP1 cf. untreated cells [1]: 18 | MCP1 [1]: 2884 pg/mL | % Biofilm inhibition [2]: 54% | Fold change in IL1β relative to no peptide LPS stimulated cells [3]: 0.61 | IL1β Production [3]: 800 pg/mL

1018-A10: single substituted 1018 peptide (VRLIVAVRIARR-NH2) [Peptide 1018-A10]
Fold increase in MCP1 cf. untreated cells [1]: 1.0 | MCP1 [1]: 7 pg/mL | % Biofilm inhibition [2]: 54% | Fold change in IL1β relative to no peptide LPS stimulated cells [3]: 0.28 | IL1β Production [3]: 369 pg/mL

HH2-I8: single substituted HH2 peptide (VQLRIRVIVIRA-NH2)
Fold increase in MCP1 cf. untreated cells [1]: 17 | MCP1 [1]: 2789 pg/mL | % Biofilm inhibition [2]: 74% | Fold change in IL1β relative to no peptide LPS stimulated cells [3]: 0.53 | IL1β Production [3]: 701 pg/mL

1002-A3: single substituted 1002 peptide (VQAWLIVWRIRK-NH2) [Peptide 1002-A3]
Fold increase in MCP1 cf. untreated cells [1]: 4.2 | MCP1 [1]: 787.2 pg/mL | % Biofilm inhibition [2]: 65% | Fold change in IL1β relative to no peptide LPS stimulated cells [3]: 0.05 | IL1β Production [3]: 127 pg/mL

1002-I2: single substituted 1002 peptide (VIRWLIVWRIRK-NH2) [Peptide 1002-I2]
Fold increase in MCP1 cf. untreated cells [1]: 3.1 | MCP1 [1]: 508.6 pg/mL | % Biofilm inhibition [2]: 70% | Fold change in IL1β relative to no peptide LPS stimulated cells [3]: 0.05 | IL1β Production [3]: 127 pg/mL

1002-G5: single substituted 1002 peptide (VQRWGIVWRIRK-NH2) [Peptide 1002-G5]
Fold increase in MCP1 cf. untreated cells [1]: 0.9 | MCP1 [1]: -36.2 pg/mL | % Biofilm inhibition [2]: 59% | Fold change in IL1β relative to no peptide LPS stimulated cells [3]: 0.25 | IL1β Production [3]: 621 pg/mL

1002-W12: single substituted 1002 peptide (VQRWLIVWRIRW-NH2) [Peptide 1002-W12]
Fold increase in MCP1 cf. untreated cells [1]: 2.7 | MCP1 [1]: 412.5 pg/mL | % Biofilm inhibition [2]: 71% | Fold change in IL1β relative to no peptide LPS stimulated cells [3]: 0.05 | IL1β Production [3]: 127 pg/mL
